Columns and labels:
human NPY Y5 receptor [1] = target: T1, human NPY Y5 receptor (Homo sapiens, UniProt Q15761); assay: Affinity for NPY Y5 receptor ([125I] peptide YY binding, CHO cell membranes); settings: inhibition of specific [125I] peptide YY binding, membranes of CHO cells expressing NPY Y5 receptor
T1 construct: expressed in transfected cells
T1 sequence (Q15761 1-445): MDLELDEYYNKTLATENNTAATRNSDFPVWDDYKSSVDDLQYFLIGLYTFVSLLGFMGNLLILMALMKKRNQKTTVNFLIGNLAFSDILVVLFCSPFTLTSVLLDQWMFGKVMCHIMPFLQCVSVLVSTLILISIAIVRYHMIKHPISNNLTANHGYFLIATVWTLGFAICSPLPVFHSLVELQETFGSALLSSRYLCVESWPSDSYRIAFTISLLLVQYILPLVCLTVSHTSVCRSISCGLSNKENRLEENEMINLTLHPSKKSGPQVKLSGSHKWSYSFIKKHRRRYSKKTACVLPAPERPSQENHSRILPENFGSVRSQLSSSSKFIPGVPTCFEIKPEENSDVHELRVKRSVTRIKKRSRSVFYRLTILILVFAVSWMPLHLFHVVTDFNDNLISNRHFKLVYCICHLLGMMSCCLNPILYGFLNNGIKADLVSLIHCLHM
Summary of the method: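 IC50 is inhibition of specific [125I] peptide YY binding (60 pM final; non-specific defined by 200 nM peptide YY), read by gamma counting after filtration. Binding used stably transfected CHO-cell membranes with compound, 2 hours at 25° C, pH 7.4 HEPES-Hanks/0.1% BSA.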

human NPY Y5 receptor [2] = target: T1, human NPY Y5 receptor; assay: cAMP production inhibitory activity in CHO cells; assay type: cell-based; settings: against 50 nM NPY inhibition of forskolin stimulated cAMP, CHO cells expressing human NPY Y5 receptor
Summary of the method: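 Supernatant cAMP quantified by EIA after HCl stop, following 30 min stimulation with 10 μM forskolin and 50 nM NPY. Compound was added 5 min before stimulation to human NPY Y5-expressing CHO cells pretreated 20 min at 37 °C with 2.5 mM isobutylmethylxanthine.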

NPY Y1 receptor = target: T2, NPY Y1 receptor (Homo sapiens, UniProt P25929); assay: Affinity for NPY Y1 receptor (membranes from SK-N-MC cells); settings: membranes from Y1-expression cells (human neuroblastoma, SK-N-MC); read-out: Binding IC50 for NPY Y1 receptor
T2 construct: membranes prepared from Y1-expression cells (human neuroblastoma, SK-N-MC); endogenous in cells; host or cells: SK-N-MC human neuroblastoma cells (membranes)
T2 sequence (P25929 1-384): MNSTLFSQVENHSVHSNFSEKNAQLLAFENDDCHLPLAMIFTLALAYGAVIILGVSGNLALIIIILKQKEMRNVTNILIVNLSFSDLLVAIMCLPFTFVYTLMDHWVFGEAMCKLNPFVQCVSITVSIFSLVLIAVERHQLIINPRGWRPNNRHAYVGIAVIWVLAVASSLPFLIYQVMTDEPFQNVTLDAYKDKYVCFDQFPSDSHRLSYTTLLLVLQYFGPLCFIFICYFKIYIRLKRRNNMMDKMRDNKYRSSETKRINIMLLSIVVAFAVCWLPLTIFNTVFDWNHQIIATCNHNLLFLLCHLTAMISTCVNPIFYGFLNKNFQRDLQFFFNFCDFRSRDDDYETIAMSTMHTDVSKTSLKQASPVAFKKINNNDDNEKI
Method: (§1) The membranes prepared from the above CHO cells expressing NPY Y5 receptor, the compound of the present invention and 30,000 cpm [^125I] peptide YY (60 pM of final concentration: Amersham) were incubated in the assay buffer (20 mM HEPES-Hanks buffer containing 0.1% bovine serum albumin, pH 7.4) at 25° C. for 2 hours, and then the mixture was filtered with a glassfilter GF/C treated with polyethyleneimine. After the glassfilter was washed with 50 mM Tris-HCl buffer (pH 7.4), the radioactivity on the filter was measured with a gamma counter. The non-specific binding was detected in the presence of 200 nM of peptide YY. The 50% inhibitory concentration of the test compound against the specific peptide YY binding (IC50 value) was calculated (Inui, A. et al. Endocrinology 131, 2090-2096 (1992)).
(§2) Using the membranes prepared from Y1-expression cells (human neuroblastoma, SK-N-MC) and the membranes prepared from Y2-expression cells (human neuroblastoma, SMS-KAN), the experiment was carried out in a similar way as Experiment 1 to determine the affinity for NPY Y1 receptor and NPY Y2 receptor.

NPY Y2 receptor = target: T3, NPY Y2 receptor (Homo sapiens, UniProt P49146); assay: Affinity for NPY Y2 receptor (membranes from SMS-KAN cells); settings: membranes from Y2-expression cells (human neuroblastoma, SMS-KAN); read-out: Binding IC50 for NPY Y2 receptor
T3 construct: membranes prepared from Y2-expression cells (human neuroblastoma, SMS-KAN); endogenous in cells; host or cells: SMS-KAN human neuroblastoma cells (membranes)
T3 sequence (P49146 1-381): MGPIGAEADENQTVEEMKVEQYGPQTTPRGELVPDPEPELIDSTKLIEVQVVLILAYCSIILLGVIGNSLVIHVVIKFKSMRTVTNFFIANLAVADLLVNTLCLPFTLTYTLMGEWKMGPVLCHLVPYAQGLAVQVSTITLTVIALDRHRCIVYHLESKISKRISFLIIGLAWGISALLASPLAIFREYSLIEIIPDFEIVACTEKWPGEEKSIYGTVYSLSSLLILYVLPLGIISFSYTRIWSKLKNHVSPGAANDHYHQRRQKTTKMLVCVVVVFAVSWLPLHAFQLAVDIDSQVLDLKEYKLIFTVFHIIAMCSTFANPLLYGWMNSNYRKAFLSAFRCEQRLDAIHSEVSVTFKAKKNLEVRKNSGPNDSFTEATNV
Method: as §1, §2

| IC50 (human NPY Y5 receptor [1]) | IC50 (human NPY Y5 receptor [2]) | IC50 (NPY Y1 receptor) | IC50 (NPY Y2 receptor) | Structure (SMILES) |
| --- | --- | --- | --- | --- |
| 1.5 nM | 30 nM | ≥ 100000 nM | ≥ 100000 nM | Cc1cc(=O)oc2cc(NC(=O)C3CCC(NS(=O)(=O)C(C)(C)C)CC3)ccc12 (centres unmarked) [Compound I-66] |
| 1.3 nM | 3.4 nM | ≥ 100000 nM | ≥ 100000 nM | CC(C)S(=O)(=O)NC1CCC(C(=O)Nc2ccc(N3C[C@@H](C)O[C@@H](C)C3)nc2)CC1 (some centres unmarked) [Ia-51] |
| 1.6 nM | 43 nM | ≥ 100000 nM | ≥ 100000 nM | C[C@@H]1CN(c2ccc(NC(=O)CCCCNS(=O)(=O)C(C)(C)C)cc2)C[C@H](C)O1 [Ia-5] |
| 0.8 nM | 10.5 nM | ≥ 100000 nM | ≥ 100000 nM | CCn1c2ccccc2c2cc(NC(=O)C3CCC(NS(=O)(=O)C(C)(C)C)CC3)ccc21 (centres unmarked) [Compound I-46] |
| 0.4 nM | 8.1 nM | ≥ 100000 nM | ≥ 100000 nM | CC(C)(C)S(=O)(=O)NC1CCC(C(=O)Nc2ccc(N3CCCC3)cc2)CC1 (centres unmarked) [Compound I-49] |
| 1.2 nM | 27.9 nM | ≥ 100000 nM | ≥ 100000 nM | CC(C)(C)S(=O)(=O)NC1CCC(C(=O)Nc2ccc(N3CCCCC3)cc2)CC1 (centres unmarked) [Compound I-45] |
| 0.67 nM | 7.5 nM | ≥ 100000 nM | ≥ 100000 nM | CC(C)(C)S(=O)(=O)NC1CCC(C(=O)Nc2ccc(C(F)(F)F)cc2)CC1 (centres unmarked) [Compound I-212] |
| 0.1 nM | 1.9 nM | ≥ 100000 nM | ≥ 100000 nM | CC(C)(C)S(=O)(=O)NC1CCC(C(=O)Nc2ccc(OC(F)(F)F)cc2)CC1 (centres unmarked) [Ia-17] |
| 1 nM | 6.3 nM | ≥ 100000 nM | ≥ 100000 nM | CC(C)(C)S(=O)(=O)NC1CCC(C(=O)Nc2ccc3c(c2)CCC3)CC1 (centres unmarked) [Compound I-204] |
| 2.3 nM | 58 nM | ≥ 100000 nM | ≥ 100000 nM | CC(C)(C)S(=O)(=O)Nc1ccc(C(=O)Nc2ccc3ncsc3c2)cc1 [Ia-126] |
| 3.1 nM | 38 nM | ≥ 100000 nM | ≥ 100000 nM | Cc1cc(NC(=O)[C@H]2CC[C@H](NS(=O)(=O)C(C)(C)C)CC2)ccc1N1C[C@@H](C)O[C@@H](C)C1 [Ia-22] |
| 1.5 nM | 3.5 nM | ≥ 100000 nM | ≥ 100000 nM | COc1ccc(NC(=O)C2CCC(NS(=O)(=O)C(C)(C)C)CC2)cc1Cl (centres unmarked) [Ia-39] |
| 2.4 nM | 23 nM | ≥ 100000 nM | ≥ 100000 nM | CC(C)S(=O)(=O)NC1CCC(C(=O)Nc2ccc(N3C[C@@H](C)O[C@@H](C)C3)cc2)CC1 (some centres unmarked) [Ia-6] |
| 1 nM | 24 nM | ≥ 100000 nM | ≥ 100000 nM | CC(C)S(=O)(=O)NC1CCC(C(=O)Nc2ccc(C(F)(F)F)cc2)CC1 (centres unmarked) [Ia-140] |
| 0.88 nM | 46 nM | ≥ 100000 nM | ≥ 100000 nM | CC(C)(C)S(=O)(=O)NC1CCC(C(=O)NCCSc2cc(C(F)(F)F)nc3ccccc23)CC1 (centres unmarked) [Compound I-152] |
| 2.3 nM | 2.1 nM | ≥ 100000 nM | ≥ 100000 nM | C[C@@H]1CN(c2ccc(NC(=O)[C@H]3CC[C@H](NS(=O)(=O)C(C)(C)C)CC3)cc2)C[C@H](C)O1 [Compound I-72] |
| 5.2 nM | 130 nM | ≥ 100000 nM | ≥ 100000 nM | Cc1cc(N2C[C@@H](C)O[C@@H](C)C2)ccc1NC(=O)C1CCC(NS(=O)(=O)C(C)(C)C)CC1 (some centres unmarked) [Ia-28] |

| IC50 (human NPY Y5 receptor [1]) | IC50 (human NPY Y5 receptor [2]) | IC50 (NPY Y1 receptor) | IC50 (NPY Y2 receptor) | Structure (SMILES) |
| --- | --- | --- | --- | --- |
| 9.2 nM | 150 nM | ≥ 100000 nM | ≥ 100000 nM | CC(C)S(=O)(=O)NCCCCC(=O)Nc1ccc(N2C[C@@H](C)O[C@@H](C)C2)cc1 [Ia-3] |
| 0.94 nM | 5.5 nM | ≥ 100000 nM | ≥ 100000 nM | CCC(C)c1ccc(NC(=O)C2CCC(NS(=O)(=O)C(C)(C)C)CC2)cc1 (centres unmarked) [Ia-12] |
| 0.8 nM | 35 nM | ≥ 100000 nM | ≥ 100000 nM | CC(C)(C)S(=O)(=O)NC1CCC(C(=O)Nc2ccc(N3CC=CCC3)cc2)CC1 (centres unmarked) [Compound I-59] |
| 4.9 nM | 100 nM | ≥ 100000 nM | ≥ 100000 nM | CC(C)(C)S(=O)(=O)NC1CCC(C(=O)Nc2cccc(F)c2)CC1 (centres unmarked) [Ia-20] |
| – | – | ≥ 100000 nM | ≥ 100000 nM | CC(C)(C)S(=O)(=O)NC1CCC(C(=O)Nc2ccc(F)cc2)CC1 (centres unmarked) [Compound I-48] |
| 1.8 nM | 64 nM | ≥ 100000 nM | ≥ 100000 nM | COc1ccc(NC(=O)C2CCC(NS(=O)(=O)C(C)(C)C)CC2)cc1OC (centres unmarked) [Ia-33] |
| 6.3 nM | 75 nM | ≥ 100000 nM | ≥ 100000 nM | C[C@@H]1CN(c2ccc(NC(=O)N3CCC(NS(=O)(=O)C(C)(C)C)CC3)cc2)C[C@H](C)O1 [Ia-67] |
| 3.8 nM | 13 nM | ≥ 100000 nM | ≥ 100000 nM | CN(C)c1cccc(NC(=O)C2CCC(NS(=O)(=O)C(C)(C)C)CC2)c1 (centres unmarked) [Compound I-69] |
| 1.1 nM | 11 nM | ≥ 100000 nM | ≥ 100000 nM | CC(C)(C)S(=O)(=O)NC1CCC(C(=O)NCc2cccc3ccccc23)CC1 (centres unmarked) [Compound I-154] |
| – | – | ≥ 100000 nM | ≥ 100000 nM | CCCCc1ccc(NC(=O)CCCNS(=O)(=O)C(C)(C)C)cc1 [Compound I-27] |
| 3.4 nM | 35 nM | ≥ 100000 nM | ≥ 100000 nM | C[C@@H]1CN(c2ccc(NC(=O)[C@H]3CC[C@H](NS(=O)(=O)C(C)(C)C)CC3)cc2F)C[C@H](C)O1 [Ia-21] |
| 2.6 nM | 25 nM | ≥ 100000 nM | ≥ 100000 nM | C[C@@H]1CN(c2c(F)c(F)c(NC(=O)C3CCC(NS(=O)(=O)C(C)(C)C)CC3)c(F)c2F)C[C@H](C)O1 (some centres unmarked) [Ia-30] |
| 0.44 nM | 9 nM | ≥ 100000 nM | ≥ 100000 nM | Cc1cc(N2C[C@@H](C)O[C@@H](C)C2)ccc1NC(=O)C1CCC(NS(=O)(=O)C(C)C)CC1 (some centres unmarked) [Ia-54] |
| 1.9 nM | 25 nM | ≥ 100000 nM | ≥ 100000 nM | CC(C)(C)S(=O)(=O)Nc1ccc(C(=O)Nc2ccc(N3CC=CC3)cc2)cc1 [Ia-139] |
| 0.1 nM | – | ≥ 100000 nM | ≥ 100000 nM | COc1ccc(NC(=O)C2CCC(NS(=O)(=O)C(C)(C)C)CC2)cc1 (centres unmarked) [Ia-16] |
| – | – | ≥ 100000 nM | ≥ 100000 nM | CCCCc1ccc(C(=O)NC2CCC(NS(=O)(=O)C(C)(C)C)CC2)cc1 (centres unmarked) [Compound I-32] |
